Source: publication PMC9604400, “Synthesis, Anticancer and Antitubercular Properties of New Chalcones and Their Nitrogen-Containing Five-Membered Heterocyclic Hybrids Bearing Sulfonamide Moiety” (International Journal of Molecular Sciences, 2022)

Key:
IGROV1 = assay: NCI-60 screen (SRB), ovarian cancer; settings: Homo sapiens; for IC50: IGROV-1; for CC50: IGROV-1, read-out: LC50
NCI-H460 = assay: NCI-60 screen (SRB), non-small cell lung cancer; settings: Homo sapiens; for IC50: NCI-H460; for CC50: NCI-H460, read-out: LC50
CCRF-CEM = assay: NCI-60 screen (SRB), leukemia; settings: Homo sapiens; for CC50: read-out: LC50
RXF 393 = assay: NCI-60 screen (SRB), renal cancer; settings: for IC50 / CC50: Homo sapiens; for IC50: RXF 393; for CC50: RXF 393, read-out: LC50
SF-539 = assay: NCI-60 screen (SRB), CNS cancer; settings: Homo sapiens; for IC50: SF-539; for CC50: SF-539, read-out: LC50
RPMI-8226 = assay: NCI-60 screen (SRB), leukemia; settings: Homo sapiens; for IC50: RPMI-8226; for CC50: RPMI-8226, read-out: LC50
HOP-92 = assay: NCI-60 screen (SRB), non-small cell lung cancer; settings: Homo sapiens; for IC50: HOP-92; for CC50: HOP-92, read-out: LC50
MDA-MB-435 = assay: NCI-60 screen (SRB), melanoma; settings: Homo sapiens; for IC50: MDA-MB-435; for CC50: MDA-MB-435, read-out: LC50
OVCAR-5 = assay: NCI-60 screen (SRB), ovarian cancer; settings: Homo sapiens; for IC50: OVCAR-5; for CC50: OVCAR-5, read-out: LC50
LOX IMVI = assay: NCI-60 screen (SRB), melanoma; settings: for IC50 / CC50: Homo sapiens; for CC50: read-out: LC50; for lethality: single dose 10 μM
K-562 = assay: NCI-60 screen (SRB), leukemia; settings: Homo sapiens; for IC50: K562; for CC50: K562, read-out: LC50
U251 = assay: NCI-60 screen (SRB), CNS cancer; settings: Homo sapiens; for IC50: U-251; for CC50: U-251, read-out: LC50
COLO 205 = assay: NCI-60 screen (SRB), colon cancer; settings: for lethality: COLO 205, single dose 10 μM; for IC50 / CC50: Homo sapiens; for IC50: COLO 205; for CC50: COLO 205, read-out: LC50
UO-31 = assay: NCI-60 screen (SRB), renal cancer; settings: for IC50 / CC50: Homo sapiens; for IC50: UO-31; for CC50: UO-31, read-out: LC50
HCT-116 = assay: NCI-60 screen (SRB), colon cancer; settings: for IC50 / CC50: Homo sapiens; for IC50: HCT-116; for CC50: HCT-116, read-out: LC50
colon cancer cell lines = assay: NCI-60 screen (SRB), colon cancer panel; assay type: cell-based; settings: Homo sapiens, single dose 10 μM, read-out: GI (growth inhibition), range over panel
MDA-MB-468 = assay: NCI-60 screen (SRB), breast cancer; settings: for IC50 / CC50: Homo sapiens; for IC50: MDA-MB-468; for CC50: MDA-MB-468, read-out: LC50
SNB-75 = assay: NCI-60 screen (SRB), CNS cancer; settings: Homo sapiens; for IC50: SNB-75; for CC50: SNB-75, read-out: LC50
SW-620 = assay: NCI-60 screen (SRB), colon cancer; settings: for IC50 / CC50: Homo sapiens; for IC50: SW-620; for CC50: SW-620, read-out: LC50
A549/ATCC = assay: NCI-60 screen (SRB), non-small cell lung cancer; settings: Homo sapiens; for IC50: A549; for CC50: A549, read-out: LC50
T-47D = assay: NCI-60 screen (SRB), breast cancer; settings: Homo sapiens, T47D; for CC50: read-out: LC50
HT29 = assay: NCI-60 screen (SRB), colon cancer; settings: Homo sapiens; for IC50: HT-29; for CC50: HT-29, read-out: LC50
DU-145 = assay: NCI-60 screen (SRB), prostate cancer; settings: Homo sapiens; for IC50: DU-145; for CC50: DU-145, read-out: LC50
EKVX = assay: NCI-60 screen (SRB), non-small cell lung cancer; settings: Homo sapiens; for CC50: read-out: LC50
SF-295 = assay: NCI-60 screen (SRB), CNS cancer; settings: Homo sapiens; for IC50: SF-295; for CC50: SF-295, read-out: LC50
SNB-19 = assay: NCI-60 screen (SRB), CNS cancer; settings: Homo sapiens; for IC50: SNB-19; for CC50: SNB-19, read-out: LC50
786-0 = assay: NCI-60 screen (SRB), renal cancer; settings: Homo sapiens; for IC50: 786-0; for CC50: 786-0, read-out: LC50
KM12 = assay: NCI-60 screen (SRB), colon cancer; settings: Homo sapiens; for IC50: KM12; for CC50: KM12, read-out: LC50
SN12C = assay: NCI-60 screen (SRB), renal cancer; settings: Homo sapiens; for CC50: read-out: LC50
MALME-3M = assay: NCI-60 screen (SRB), melanoma; settings: Homo sapiens; for CC50: read-out: LC50
MDA-MB-231/ATCC = assay: NCI-60 screen (SRB), breast cancer; settings: Homo sapiens; for IC50: MDA-MB-231; for CC50: MDA-MB-231, read-out: LC50
SK-MEL-2 = assay: NCI-60 screen (SRB), melanoma; settings: for IC50 / CC50: Homo sapiens; for IC50: SK-MEL-2; for CC50: SK-MEL-2, read-out: LC50
OVCAR-4 = assay: NCI-60 screen (SRB), ovarian cancer; settings: Homo sapiens; for IC50: OVCAR-4; for CC50: OVCAR-4, read-out: LC50

In the case of `COc1cc(OC)c(S(N)(=O)=O)cc1C(=O)/C=C/c1ccc(Cl)cc1` [Compound 17b, (E)-5-(3-(4-Chlorophenyl)acryloyl)-2,4-dimethoxybenzenesulfonamide], the IC50 (IGROV1) is reported as 2.95 µM, the CC50 (IGROV1) is reported as > 100 µM and the IC50 (NCI-H460) is reported as 2.84 µM. The CC50 (NCI-H460) was > 100 µM, the IC50 (CCRF-CEM) was 1.52 µM and the CC50 (CCRF-CEM) was > 100 µM. It also gave an IC50 (RXF 393) of 1.62 µM, a CC50 (RXF 393) of 6.89 µM and a lethality (RXF 393; RXF 393, single dose 10 μM) of 40.37%. The IC50 (SF-539) was 2.14 µM, the CC50 (SF-539) was 12.6 µM and the IC50 (RPMI-8226) was 1.86 µM. The CC50 (RPMI-8226) was > 100 µM, the IC50 (HOP-92) was 1.46 µM and the CC50 (HOP-92) was 24.9 µM. It also gave an IC50 (MDA-MB-435) of 2.08 µM, a CC50 (MDA-MB-435) of 29.3 µM and an IC50 (OVCAR-5) of 3.18 µM. For the same compound, the CC50 (OVCAR-5) was 39 µM, the IC50 (LOX IMVI) was 0.73 µM and the CC50 (LOX IMVI) was 7.03 µM. For the same compound, the lethality (LOX IMVI) was 50.40%, the IC50 (K-562) was 1.85 µM and the CC50 (K-562) was > 100 µM. The IC50 (U251) was 2.18 µM, the CC50 (U251) was > 100 µM and the lethality (COLO 205) was 30.00%. For the same compound, the IC50 (COLO 205) was 1.66 µM, the CC50 (COLO 205) was 5.88 µM and the IC50 (UO-31) was 2.36 µM. The CC50 (UO-31) was 33.1 µM, the IC50 (HCT-116) was 0.75 µM and the CC50 (HCT-116) was 5.13 µM. It also gave an inhibition at 10 µM (colon cancer cell lines) of 92.2 to 100%, an IC50 (MDA-MB-468) of 3.08 µM and a CC50 (MDA-MB-468) of 6.54 µM. For the same compound, the lethality (MDA-MB-468; MDA-MB-468, single dose 10 μM) was 57.82%, the IC50 (SNB-75) was 1.5 µM and the CC50 (SNB-75) was 6.95 µM. The IC50 (SW-620) was 2.49 µM, the CC50 (SW-620) was 95.9 µM and the lethality (SW-620; SW-620, single dose 10 μM) was 39.92%. The IC50 (A549/ATCC) was 3.17 µM, the CC50 (A549/ATCC) was > 100 µM and the IC50 (T-47D) was 12.4 µM. It also gave a CC50 (T-47D) of 64.6 µM, an IC50 (HT29) of 2.18 µM and a CC50 (HT29) of 9.97 µM. The IC50 (DU-145) was 3.44 µM, the CC50 (DU-145) was 42.2 µM and the IC50 (EKVX) was 3.88 µM. For the same compound, the CC50 (EKVX) was > 100 µM, the IC50 (SF-295) was 3.88 µM and the CC50 (SF-295) was 57.6 µM. The IC50 (SNB-19) was 3.17 µM, the CC50 (SNB-19) was > 100 µM and the IC50 (786-0) was 1.9 µM. For the same compound, the CC50 (786-0) was 9.83 µM, the IC50 (KM12) was 1.82 µM and the CC50 (KM12) was > 100 µM. For the same compound, the IC50 (SN12C) was 2.48 µM, the CC50 (SN12C) was 60.2 µM and the IC50 (MALME-3M) was 2.79 µM. For the same compound, the CC50 (MALME-3M) was 87.4 µM, the IC50 (MDA-MB-231/ATCC) was 18.9 µM and the CC50 (MDA-MB-231/ATCC) was > 100 µM. The IC50 (SK-MEL-2) was 11.5 µM, the CC50 (SK-MEL-2) was 57.2 µM and the IC50 (OVCAR-4) was 3.54 µM. The CC50 (OVCAR-4) was > 100 µM.
For `COc1cc(OC)c(S(=O)(=O)N(CCCl)CCCl)cc1C(=O)/C=C/c1cc(OC)c(OC)c(OC)c1` [Compound 18e, (E)-N,N-bis(2-Chloroethyl)-2,4-dimethoxy-5-(3-(3,4,5-trimethoxyphenyl)acryloyl)benzenesulfonamide], the IC50 (IGROV1) was 9.05 µM, the CC50 (IGROV1) was > 100 µM and the IC50 (NCI-H460) was 1.95 µM. The CC50 (NCI-H460) was > 100 µM, the IC50 (CCRF-CEM) was 1.69 µM and the CC50 (CCRF-CEM) was > 100 µM. The IC50 (RXF 393) was 2.83 µM, the CC50 (RXF 393) was 6.44 µM and the IC50 (SF-539) was 3.61 µM. For the same compound, the CC50 (SF-539) was 7.51 µM, the IC50 (RPMI-8226) was 2.52 µM and the CC50 (RPMI-8226) was > 100 µM. For the same compound, the IC50 (HOP-92) was > 100 µM, the CC50 (HOP-92) was > 100 µM and the IC50 (MDA-MB-435) was 7.51 µM. The CC50 (MDA-MB-435) was > 100 µM, the IC50 (OVCAR-5) was 6.8 µM and the CC50 (OVCAR-5) was > 100 µM. For the same compound, the IC50 (LOX IMVI) was 2.89 µM, the CC50 (LOX IMVI) was 5.79 µM and the lethality (LOX IMVI) was 84.53%. The IC50 (K-562) was 1.3 µM, the CC50 (K-562) was > 100 µM and the IC50 (U251) was 3.68 µM. It also gave a CC50 (U251) of 7.61 µM, a lethality (COLO 205) of 89.76% and an IC50 (COLO 205) of 4.46 µM. It also gave a CC50 (COLO 205) of 8.39 µM, an IC50 (UO-31) of 2.92 µM and a CC50 (UO-31) of 5.51 µM. It also gave a lethality (UO-31; UO-31, single dose 10 μM) of 93.86%, a lethality (HCT-116; HCT-116, single dose 10 μM) of 87.74% and an IC50 (HCT-116) of 2.82 µM. For the same compound, the CC50 (HCT-116) was 6.47 µM, the IC50 (MDA-MB-468) was 3.66 µM and the CC50 (MDA-MB-468) was 8.84 µM. The IC50 (SNB-75) was 8.53 µM, the CC50 (SNB-75) was > 100 µM and the IC50 (SW-620) was 25.1 µM. The CC50 (SW-620) was > 100 µM, the IC50 (A549/ATCC) was 3.11 µM and the CC50 (A549/ATCC) was > 100 µM. The IC50 (T-47D) was > 100 µM, the CC50 (T-47D) was > 100 µM and the IC50 (HT29) was 5.92 µM. The CC50 (HT29) was > 100 µM, the IC50 (DU-145) was 14.8 µM and the CC50 (DU-145) was > 100 µM. The IC50 (EKVX) was 2.69 µM, the CC50 (EKVX) was > 100 µM and the IC50 (SF-295) was 35.4 µM. For the same compound, the CC50 (SF-295) was > 100 µM, the IC50 (SNB-19) was 5.71 µM and the CC50 (SNB-19) was 45.7 µM. The IC50 (786-0) was 5.66 µM, the CC50 (786-0) was > 100 µM and the IC50 (KM12) was 4.25 µM. The CC50 (KM12) was 9.4 µM, the IC50 (SN12C) was 13 µM and the CC50 (SN12C) was > 100 µM. For the same compound, the IC50 (MALME-3M) was 7.18 µM, the CC50 (MALME-3M) was > 100 µM and the IC50 (MDA-MB-231/ATCC) was > 100 µM. The CC50 (MDA-MB-231/ATCC) was > 100 µM, the IC50 (SK-MEL-2) was 4.65 µM and the CC50 (SK-MEL-2) was 27.6 µM. For the same compound, the lethality (SK-MEL-2; SK-MEL-2, single dose 10 μM) was 94.49%, the IC50 (OVCAR-4) was > 100 µM and the CC50 (OVCAR-4) was > 100 µM.
